Tests used:
[1] = test system: human colon cancer (HCT-116) cell line; test: Cytotoxicity assay (MTT), HCT-116; type: cell-based; details: 24 h treatment
Procedure: (§1) The cytotoxic activity was determined against human colon cancer (HCT-116), human non-small-cell lung carcinoma (NCI-H1650), and human ovarian cancer (A2780) cell lines which were bought from the Cell Bank of Shanghai Institute of Cell Biology (Chinese Academy of Sciences) and originally obtained from the American Type Culture Collection (ATCC, Rockville, MD, USA). Cells were grown in RPMI 1640 (GIBCO, New York, NY, USA) supplemented with 10% fetal calf serum (Life Technologies, Carlsbad, CA, USA), penicillin G (100 U/mL), and streptomycin (100 μg/mL) at 37 °C in a 5% CO2 and seeded in 96-well plates (CLS3635, Corning®, Sigma, Santa Clara, CA, USA) at a cell density of 3000 per well over night, and then were treated with various diluted concentrations (each concentration was arranged triple) of compounds 1–19, which were prepared with DMSO (Sigma) to 100 μM stock solution and stored in −20 °C in advance. After 24 h of treatment, 10 μL of MTT (5 mg/mL in PBS) was then added directly to all wells and the plates were placed in the dark at 37 °C for 3 h incubation. Cell viability was measured by observing absorbance at 570 nm on a SpectraMax^190 microplate reader (Molecular Devices, Silicon Valley, CA, USA). IC50 values were calculated using Microsoft Excel software (version 2010, Redmond, WA, USA). Taxol was used as a positive control.

[2] = test system: human non-small-cell lung carcinoma (NCI-H1650) cell line; test: Cytotoxicity assay (MTT), NCI-H1650; type: cell-based; details: for IC50: Homo sapiens, NCI-H1650, MTT, 24 h treatment
Procedure: as §1

[3] = test system: human ovarian cancer (A2780) cell line; test: Cytotoxicity assay (MTT), A2780; type: cell-based; details: 24 h treatment
Procedure: as §1

[4] = test system: LPS-induced NO production in RAW264.7 macrophages; test: LPS-induced nitric oxide (NO) production in RAW264.7 macrophages (Griess); type: cell-based; details: Mus musculus, LPS 1 μg/mL, 18 h, read-out: IC50 against LPS-induced NO production
Procedure: The RAW 264.7 macrophages were cultured in The RPMI 1640 medium (Hyclone, Logan, UT, USA) containing 10% FBS. The compounds were dissolved in DMSO and further diluted in medium to produce different concentrations. The cell mixture and culture medium were dispensed into 96-well plates (2 × 10^5 cells/well) and maintained at 37 °C under 5% CO2. After preincubation for 24 h, serial dilutions of the test compounds were added into the cells, up to the maximum concentration 25 μM, then added with LPS to a concentration 1 μg/mL and continued to incubate for 18 h. The amount of NO was assessed by determined the nitrite concentration in the cultured RAW264.7 macrophage supernatants with Griess reagent. Aliqueots of supernatants (100 μL) were incubated, in sequence, with 50 μL 1% sulphanilamide and 50 μL 1% naphthylethylenediamine in 2.5% phosphoric acid solution. The sample absorbance was measured at 570 nm by a 2104 Envision Multilabel Plate Reader (PerkinElmer, Inc., Waltham, MA, USA). Dexamethasone was used as a positive control.

[5] = molecular target: T1, human protein tyrosine phosphatase 1B (GST-hPTP1B) (Homo sapiens, UniProt P18031); test: PTP1B inhibition assay (p-NPP dephosphorylation); type: biochemical; details: 3 mM p-NPP, HEPES pH 7.0, 30 °C, 10 min; read-out: IC50 against PTP1B
T1 construct: GST; made in house
T1 sequence (P18031 1-435): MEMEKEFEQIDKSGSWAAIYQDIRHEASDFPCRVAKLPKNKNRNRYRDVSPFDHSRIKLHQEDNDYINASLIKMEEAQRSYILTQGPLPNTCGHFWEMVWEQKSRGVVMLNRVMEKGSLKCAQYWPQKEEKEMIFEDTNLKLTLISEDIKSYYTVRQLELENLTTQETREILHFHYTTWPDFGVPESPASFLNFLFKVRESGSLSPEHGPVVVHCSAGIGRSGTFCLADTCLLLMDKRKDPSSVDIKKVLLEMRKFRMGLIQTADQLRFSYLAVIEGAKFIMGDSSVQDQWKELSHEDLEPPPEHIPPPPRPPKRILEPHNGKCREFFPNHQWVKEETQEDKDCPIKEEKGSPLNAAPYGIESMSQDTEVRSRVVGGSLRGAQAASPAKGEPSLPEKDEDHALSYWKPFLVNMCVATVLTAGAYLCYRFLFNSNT
Procedure: The dephosphorylation of para-nitrophenyl phosphate (p-NPP) was catalyzed to para-nitrophenol by PTP1B. Enzyme activity involving an end-point assay, which intensified the yellow color, was measured at a wavelength of 405 nm. All compounds were dissolved in 100% dimethyl sulfoxide (DMSO), and reactions, including controls, were performed at a final concentration of 10% DMSO. Selected compounds were first evaluated for their ability to inhibit the PTPase reaction at a 10 μM concentration at 30 °C for 10 min, in a reaction system with 3 mM p-NPP in HEPES assay buffer (pH 7.0). The reaction was initiated by addition of the enzyme and quenched by addition of 1 M NaOH. The amount of the produced p-nitrophenol was determined at 405 nm using a microplate spectrophotometer (uQuant, Bio-Tek, Winooski, VT, USA). IC50 values were evaluated using a sigmoidal dose-response (variable slope) curve-fitting program of GraphPad Prism 4.0 software (La Jolla, CA, USA). Oleanolic acid was used as a positive control.

Row | Compound | IC50 [1] | IC50 [2] | folds more active than 8, 9, 13, and 14 ([2]; NCI-H1650 cell line, versus 8, 9, 13 and 14) | IC50 [3] | IC50 [4] | IC50 [5]
1 | COc1cc(C=CC(=O)OCC2C(C(=O)c3cc(OC)c(O)c(OC)c3)COC2c2cc(OC)c(O)c(OC)c2)ccc1O (single isomer, unassigned; (+)) [Compound 7] | > 20 µM | 2.47 µM | 4-6 folds | > 20 µM |  | 
2 | COc1cc(C=CC(=O)OCC2C(Cc3cc(OC)c(O)c(OC)c3)COC2c2cc(OC)c(O)c(OC)c2)cc(OC)c1O (single isomer, unassigned; (+)) [Compound 8] | > 20 µM | 11.2 µM |  | > 20 µM |  | 
3 | COc1cc(C=CC(=O)OCC2C(Cc3cc(OC)c(O)c(OC)c3)COC2c2cc(OC)c(O)c(OC)c2)ccc1O (single isomer, unassigned; (+)) [Compound 13, (+)-9′-O-(E)-feruloyl-5,5′-dimethoxylariciresinol] | > 20 µM | 9.68 µM |  | > 20 µM |  | 
4 | COc1cc(C=CC(=O)OCC2C(Cc3ccc(O)c(OC)c3)COC2c2cc(OC)c(O)c(OC)c2)ccc1O (single isomer, unassigned; (+)) [Compound 14, (+)-9′-O-(E)-feruloyl-5′-methoxylariciresinol] | > 20 µM | 10.5 µM |  | > 20 µM |  | 
5 | COc1cc(CC2COC(c3cc(OC)c(O)c(OC)c3)C2CO)cc(OC)c1O (single isomer, unassigned; (+)) [Compound 15, (+)-5,5′-dimethoxylariciresinol] | > 20 µM | > 20 µM |  | > 20 µM |  | 
6 | COc1cc(CC2COC(c3cc(OC)c(O)c(OC)c3)C2CO)ccc1O (single isomer, unassigned; (+)) [Compound 16, (+)-5′-methoxylariciresinol] | > 20 µM | > 20 µM |  | > 20 µM |  | 
7 | COc1cc([C@@H]2c3c(cc(OC)c(O)c3OC)C=C(C(=O)NCCc3ccc(O)cc3)[C@H]2CO)cc(OC)c1O [Compound 1, (−)-(7′R,8′S)-N-[2-(4-hydroxyphenyl)-ethyl]-4,4′,9′-trihydroxy-3,5,3′,5′-tetramethoxy-2,7′-cyclolignan-7-en-9-amide] | > 20 µM | > 20 µM |  | > 20 µM |  | 
8 | COc1cc(CCNC(=O)[C@@H]2C(C(=O)NCCc3ccc(O)cc3)=Cc3cc(OC)c(O)c(OC)c3[C@H]2c2cc(OC)c(O)c(OC)c2)ccc1O [Compound 2, (−)-(7′R,8′S)-N^1-[2-(4-hydroxyphenyl)-ethyl]-N^2-[2-(4-hydroxy-3-methoxyphenyl)-ethyl]-4,4′-dihydroxy-3,5,3′,5′-tetramethoxy-2,7′-cyclolignan-7-en-9,9′-diamide] | > 20 µM | > 20 µM |  | > 20 µM |  | 
9 | COc1cc(CCNC(=O)C2=Cc3cc(OC)c(O)c(OC)c3[C@@H](c3cc(OC)c(O)c(OC)c3)[C@@H]2C(=O)NCCc2ccc(O)cc2)ccc1O [Compound 3, (−)-(7′R,8′S)-N^1-[2-(4-hydroxy-3-methoxyphenyl)-ethyl]-N^2-[2-(4-hydroxyphenyl)-ethyl]-4,4′-dihydroxy-3,5,3′,5′-tetramethoxy-2,7′-cyclolignan-7-en-9,9′-diamide] | > 20 µM | > 20 µM |  | > 20 µM |  | 
10 | COc1cc(/C=C/C(=O)OC[C@@H](Cc2cc(OC)c(O)c(OC)c2)[C@@H](CO)Cc2cc(OC)c(O)c(OC)c2)ccc1O [Compound 5, (+)-(8S,8′S)-9-O-(E)-feruloyl-5,5′-dimethoxysecoisolariciresinol] | > 20 µM | > 20 µM |  | > 20 µM | 50.1 µM | 
11 | COc1cc(/C=C/C(=O)OC[C@@H](Cc2ccc(O)c(OC)c2)[C@@H](CO)Cc2ccc(O)c(OC)c2)ccc1O [Compound 6, (+)-(8S,8′S)-9-O-(E)-feruloyl-secoisolariciresinol] | > 20 µM | > 20 µM |  | > 20 µM | 58.6 µM | 
12 | COc1cc(C=CC(=O)OCC2C(c3cc(OC)c(O)c(OC)c3)OCC2C(OC)c2cc(OC)c(O)c(OC)c2)ccc1O (stereo not shown) [Compound 9, 9′-O-(E)-Feruloyl-5,7,5′-trimethoxylariciresinol] | > 20 µM | 13.2 µM |  | > 20 µM |  | 
13 | COc1cc([C@@H]2c3c(cc(OC)c(O)c3OC)C=C(C(=O)NCCc3ccc(O)cc3)[C@H]2C(=O)NCCc2ccc(O)cc2)cc(OC)c1O [Compound 10, 1,2-dihydro-6,8-dimethoxy-7-hydroxy-1-(3,5-dimethoxy-4-hydroxyphenyl)-N^1,N^2-bis-[2-(4-hydroxypeenyl)ethyl]-2,3-naphthalene dicarboxamide] | > 20 µM | > 20 µM |  | > 20 µM |  | 
14 | COc1cc(/C=C/C(=O)OC[C@@H](Cc2cc(OC)c(O)c(OC)c2)[C@@H](COC(=O)/C=C/c2ccc(O)c(OC)c2)Cc2cc(OC)c(O)c(OC)c2)ccc1O [Compound 11, (+)-9,9′-O-di-(E)-feruloyl-5,5′-dimethoxy secoisolariciresinol] | > 20 µM | > 20 µM |  | > 20 µM | 47.5 µM | 13.5 µM
15 | COc1cc(/C=C/C(=O)OC[C@@H](Cc2ccc(O)c(OC)c2)[C@@H](COC(=O)/C=C/c2ccc(O)c(OC)c2)Cc2ccc(O)c(OC)c2)ccc1O [Compound 12, (+)-9,9′-O-di-(E)-feruloyl-secoisolariciresinol] | > 20 µM | > 20 µM |  | > 20 µM | 66.5 µM | 
16 | COc1cc(C[C@H]2C(=O)OC[C@@H]2Cc2ccc(OC)c(OC)c2)ccc1O [Compound 17, arctigenin] | 3.25 µM | > 20 µM |  | 0.28 µM |  | 
17 | COc1cc(C[C@H]2COC(=O)[C@@H]2Cc2ccc(O)c(OC)c2)ccc1O [Compound 18, matairesinol] | 14 µM | > 20 µM |  | 1.53 µM |  | 
18 | COc1cc(C=C2C(=O)OCC2Cc2ccc(OC)c(OC)c2)ccc1O (stereo not shown) [Compound 19, (7E,8R′)-didehydroarctigenin] | 18.5 µM | > 20 µM |  | 12.8 µM |  | 
19 | C[C@@H]1C[C@H]2[C@@H]3CCC4=CC(=O)C=C[C@]4(C)[C@@]3(F)[C@@H](O)C[C@]2(C)[C@@]1(O)C(=O)CO [Dexamethasone, reference compound] |  |  |  |  | 9.5 µM | 
20 | CC(=O)O[C@H]1C(=O)[C@@]2(C)[C@H]([C@H](OC(=O)c3ccccc3)[C@]3(O)C[C@H](OC(=O)[C@H](O)[C@@H](NC(=O)c4ccccc4)c4ccccc4)C(C)=C1C3(C)C)[C@]1(OC(C)=O)CO[C@@H]1C[C@@H]2O [Taxol, reference compound] | 0.005 µM | 1.28 µM |  | 0.02 µM |  | 

From paper PMC6359749, “Lignans from the Twigs of Litsea cubeba and Their Bioactivities” (Molecules, 2019)
